According to PubChem BioAssay AID330 (DTP/NCI, 2004):
“And” between values parts separate entries of the source, which are not always exact repeats. Identical values can stand only once. Inconclusive results and toxic doses are left out.

Test system: P388 leukemia ip, CD2F1 mice, survival T/C
Experiment: NCI In Vivo Anticancer Drug Screen. Data for tumor model P388 Leukemia (intraperitoneal) in CD2F1 (CDF1) mice
Conditions: endpoint: median survival time, higher = longer survival
How it was run: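 Mice carrying the transplanted tumor received test compound or vehicle. Survival was recorded in each group, and the value is the treated-group measurement divided by that of the vehicle-treated control group.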

[1] = dose: 50.0 mg/kg/injection, schedule: Q01DX005 (ip), vehicle: saline
[2] = dose: 100.0 mg/kg/injection, schedule: Q01DX005 (ip), vehicle: saline
[3] = dose: 200.0 mg/kg/injection, schedule: Q01DX005 (ip), vehicle: saline
[4] = dose: 50.0 mg/kg/injection, schedule: Q01DX005 (ip), vehicle: saline with Tween-80
[5] = dose: 100.0 mg/kg/injection, schedule: Q01DX005 (ip), vehicle: saline with Tween-80
[6] = dose: 200.0 mg/kg/injection, schedule: Q01DX005 (ip), vehicle: saline with Tween-80
[7] = dose: 100.0 mg/kg/injection, schedule: Q04DX003 (ip), vehicle: saline
[8] = dose: 200.0 mg/kg/injection, schedule: Q04DX003 (ip), vehicle: saline
[9] = dose: 400.0 mg/kg/injection, schedule: Q04DX003 (ip), vehicle: saline

## N=C(N)SCCSC(=N)N
dose: 25.0 mg/kg/injection, schedule: Q01DX009 (ip), vehicle: saline sonified
  T/C: 90 % of control
dose: 50.0 mg/kg/injection, schedule: Q01DX009 (ip), vehicle: saline sonified
  T/C: 109 % of control
dose: 100.0 mg/kg/injection, schedule: Q04DX002 (ip), vehicle: saline
  T/C: 100 % of control
dose: 200.0 mg/kg/injection, schedule: Q04DX002 (ip), vehicle: saline
  T/C: 100 % of control

## CCc1ncnc2cc(OCC3CO3)c(OC)cc12 (stereo not drawn)
dose: 6.25 mg/kg/injection, schedule: Q01DX005 (ip), vehicle: saline
  T/C: 114 % of control
dose: 25.0 mg/kg/injection, schedule: Q01DX005 (ip), vehicle: saline
  T/C: 155 % of control and 158 % of control
[1]
  T/C: 154 % of control and 158 % of control and 182 % of control

## O=C(O)c1ccc(C(=O)NCCCN(CCCCN(CCCNC(=O)c2ccc(C(=O)O)c(O)c2O)C(=O)c2ccc(C(=O)O)c(O)c2O)C(=O)c2ccc(C(=O)O)c(O)c2O)c(O)c1O
[1]
  T/C: 99 % of control
[2]
  T/C: 101 % of control
[3]
  T/C: 99 % of control

## Cn1c(NCCN2CCOCC2)c(C(=O)/C=C/c2ccccc2)c(=O)n(C)c1=O
[4]
  T/C: 98 % of control
[5]
  T/C: 92 % of control
[6]
  T/C: 95 % of control

## CCC(C)C(NC(=O)C(Cc1c[nH]c2ccccc12)NC(=O)OC(C)(C)C)C(=O)OC (stereo not drawn)
dose: 12.5 mg/kg/injection, schedule: Q01DX009 (ip), vehicle: other
  T/C: 99 % of control
dose: 25.0 mg/kg/injection, schedule: Q01DX009 (ip), vehicle: other
  T/C: 104 % of control
dose: 50.0 mg/kg/injection, schedule: Q01DX009 (ip), vehicle: other
  T/C: 104 % of control
dose: 100.0 mg/kg/injection, schedule: Q01DX009 (ip), vehicle: other
  T/C: 106 % of control
dose: 200.0 mg/kg/injection, schedule: Q01DX009 (ip), vehicle: other
  T/C: 110 % of control

## COC(=O)n1c(=O)oc2c(Br)cc(Br)cc21
dose: 50.0 mg/kg/injection, schedule: Q01DX005 (ip), vehicle: Klucel (hydroxypropylcellulose) (HPC)
  T/C: 103 % of control
dose: 100.0 mg/kg/injection, schedule: Q01DX005 (ip), vehicle: Klucel (hydroxypropylcellulose) (HPC)
  T/C: 106 % of control
dose: 200.0 mg/kg/injection, schedule: Q01DX005 (ip), vehicle: Klucel (hydroxypropylcellulose) (HPC)
  T/C: 103 % of control

## C=CCNC(=O)C(NC(=O)OCCCC)NC(=O)OCCCC
[4]
  T/C: 95 % of control
[5]
  T/C: 87 % of control
[6]
  T/C: 87 % of control

## CNNC(=O)C(=O)n1ccnc1
[1]
  T/C: 104 % of control
[2]
  T/C: 103 % of control
[3]
  T/C: 101 % of control

## COSc1cccc(C(F)(F)F)c1
[7]
  T/C: 100 % of control
[8]
  T/C: 100 % of control
[9]
  T/C: 97 % of control

## CCN(CC)c1ccc(/C=N/Nc2cc(C)nc3ccc(C4CCCCC4)cc23)cc1
[4]
  T/C: 90 % of control
[5]
  T/C: 100 % of control
[6]
  T/C: 118 % of control

## CC12CCC(=O)N1C(C(=O)O)CS2 (stereo not drawn)
dose: 12.5 mg/kg/injection, schedule: Q04DX003 (ip), vehicle: saline
  T/C: 119 % of control
dose: 25.0 mg/kg/injection, schedule: Q04DX003 (ip), vehicle: saline
  T/C: 99 % of control and 106 % of control
dose: 50.0 mg/kg/injection, schedule: Q04DX003 (ip), vehicle: saline
  T/C: 102 % of control and 109 % of control and 97 % of control
[7]
  T/C: 98 % of control and 123 % of control and 97 % of control
[8]
  T/C: 107 % of control
[9]
  T/C: 91 % of control

## COc1ccc(C(c2cc(C(C)(C)C)c(O)c(C(C)(C)C)c2)N2CCCCC2)cc1 (stereo not drawn)
[4]
  T/C: 102 % of control
[5]
  T/C: 109 % of control
[6]
  T/C: 112 % of control

## CCC(=O)c1ccc(Oc2c3ccccc3nc3ccccc23)cc1
[4]
  T/C: 108 % of control
[5]
  T/C: 117 % of control
[6]
  T/C: 110 % of control

## NC(=O)c1csc(-c2ccc(CO)o2)n1
[4]
  T/C: 95 % of control
[5]
  T/C: 86 % of control

## COC1CC(N=S(=O)(O)c2ccc(N)cc2)[N-]C(OC)N1.[Ag+] (stereo not drawn)
dose: 50.0 mg/kg/injection, schedule: Q01DX009 (ip), vehicle: Klucel (hydroxypropylcellulose) (HPC)
  T/C: 97 % of control
dose: 100.0 mg/kg/injection, schedule: Q01DX009 (ip), vehicle: Klucel (hydroxypropylcellulose) (HPC)
  T/C: 93 % of control
dose: 200.0 mg/kg/injection, schedule: Q01DX009 (ip), vehicle: Klucel (hydroxypropylcellulose) (HPC)
  T/C: 102 % of control

## COc1cc(OC)cc(C2SCC(=O)N2c2nncs2)c1 (stereo not drawn)
dose: 60.0 mg/kg/injection, schedule: Q01DX005 (ip), vehicle: saline with Tween-80
  T/C: 107 % of control
dose: 120.0 mg/kg/injection, schedule: Q01DX005 (ip), vehicle: saline with Tween-80
  T/C: 98 % of control
dose: 240.0 mg/kg/injection, schedule: Q01DX005 (ip), vehicle: saline with Tween-80
  T/C: 93 % of control
